Laboratory results reported in patent US20090093424A1, “Markers for melanoma” (University College Dublin, priority 2006, published 2009).

System: FABP5 gene expression in melanoma cell lines (WM793 and derivatives)
Experiment: RT-PCR analysis via cycle limitation to assess effect of DAC treatment on FABP5 expression in melanoma cell lines
Type: cell-based, human
Protocol: Total RNA was extracted from untreated (−DAC) and treated (+DAC) cells and subjected to RT-PCR analysis via a cycle limitation method.
RNA extracts were pre-digested with DNase I prior to cDNA synthesis using the DNA-Free kit (Ambion). Single-stranded cDNA was synthesized from 1 μg total RNA using the ImProm-II Reverse Transcription kit (Promega). Recombinant RNasin Ribonuclease Inhibitor (20 U/20 μL reaction; Promega) was added to prevent RNase-mediated degradation. Two negative controls were also utilised, namely minus reverse transcriptase enzyme control and minus template control. Following inactivation of reverse transcriptase (RT) at 70° C. for 15 minutes, aliquots of generated single-stranded cDNA were subjected to polymerase chain reaction (PCR) amplification via a cycle limitation approach.
18 s was used as a control gene whose expression is unaffected by DAC treatment.
Primers used were as follows: […]

## Nc1ncn([C@H]2C[C@H](O)[C@@H](CO)O2)c(=O)n1 [DAC, 5-aza-2′-deoxycytidine]
Derivative melanoma cell lines of WM793, treated (+DAC) vs untreated (-DAC), 18s control gene, FIG. 6
  expression of the FABP5 gene after DAC treatment: increased expression of the FABP5 gene
More aggressive melanoma cell lines vs parental WM793, FIG. 6
  recovery of FABP5 expression by DAC treatment, aggressive derivative lines compared with parental line: recovered greater expression in these cells than in the parental melanoma cell line
